Assay results published in patent US12421489B2, “Biological control of plant pathogenic microorganisms” (priority 2016, dated 2025).

What was measured:
Botrytis spp. [1] = assay: Cherry inoculation assays 2 and 4: Botrytis spp. fruit rot of ‘Sweet Valentine’ cherries, dip treatment; format: in vivo; details: Assay 2, cherries, cumulative after 13 days; nil 35%; not significantly reduced (P>0.05)
Protocol: Fruit-based screening assays were conducted in laboratories at the Plant and Food Research Ruakura Research Centre, Hamilton, New Zealand (PFR). PFR assays focused on dip treatment application of YBCA5 and fungicide controls.
Fruit for Monilinia fructicola and Botrytis spp. inoculation assays were carried out on sweet cherries (Prunus avium ‘Sweet Valentine’) that were picked at the harvest mature stage and sourced from the PFR Clyde Research Orchard in Central Otago on 8 Jan. 2016 for fruit based assays 1 and 2. A second harvest was carried out on 13 Jan. 2016 for fruit based assays 3 and 4.
Each cherry was then subjected to a double wash process. Wash one consisted of 10 minutes in tap water on a rotary shaker (110 rpm) followed by a five minute wash in SDW (Wash 2). […]
A Botrytis spp. culture (isolate code 09-2), which had been originally isolated from an infected kiwifruit located in the Bay of Plenty region during the 2000s, was used for the spray inoculation assays included in this section carried out on cherries. […] This stock suspension was then filtered using a 70 μm cell strainer (70 μm mesh) to remove mycelial fragments, the concentration determined using a haemocytometer and then adjusted, by dilution with SDW+Tw 80 (0.01% v/v) to a final concentration of 1×10^5 conidia/mL. […]

Botrytis spp. [2] = assay: Assay 8: wound protection of ‘Hongyang’ kiwifruit, Botrytis spp.; format: in vivo; details: wounded ‘Hongyang’ kiwifruit, treatment 24 h before Botrytis spp., 6 days incubation
Protocol: The kiwifruit ‘Hongyang’-based screening assays (assays 8 and 9) were conducted in laboratories at the Plant and Food Research Ruakura Research Centre, Hamilton, New Zealand (PFR). PFR assays focused on wound application of YBCA5 treatment, a commercial biological control treatment and a fungicide were used as comparative controls.
The ‘Hongyang’ kiwifruit were sourced from the PFR Riwaka Research Orchard in Motueka on 12 Apr. 2017 for fruit based assays 8 and 9. Penicillium spp. Phomopsis spp., Alternaria spp., Colletotrichum spp., Cryptosporiopsis spp. and Botrytis spp. inoculation assays were carried out on ‘Hongyang’ kiwifruit that were picked at the harvest mature stage. […]
For assays 8 and 9, two sterile paper towels were placed beneath Plix cut-outs, moistened with 40 mL SDW and each fruit placed in disposable lunch boxes (Plix Extra Deep 45/45, containing five Plix fruit cut-outs to prevent fruit from moving), sealed, then placed into large (40 L) plastic bins which were closed to ensure high relative humidity for the first 24 h and incubated on the lab bench at 24° C. […] After 6 days, (Alternaria spp. Botrytis spp., Penicillium spp., Phomopsis spp., Colletotrichum spp.) and 7 days (Cryptosporiopsis spp.), the severity of fungal rot was assessed for each treatment by measuring the lesion length (mm) along the axis of the fruit. […]

## CC(C)NC(=O)N1CC(=O)N(c2cc(Cl)cc(Cl)c2)C1=O [iprodione]
Botrytis spp. [1]
  incidence of Botrytis spp. fruit rot: 22%
Botrytis spp. [2]
  lesion size, comparison between treatments: significantly smaller than the untreated control
